Laboratory results reported in patent US10695364B2, “Anti-hemorrhaging compositions” (Ariel-University Research and Development Company Ltd., priority 2015, dated 2020).
“Also recorded” adds a separate entry of the source. Structures can show the parent of a compound that is named as a salt.

Test system: blood drawn from mice
Assay: Blood coagulation assay (presence or absence of blood clots, observed with CCD camera)
Experimental: Rats or mice (2-3 months old) were sacrificed using CO2 and their blood was extracted directly from the heart using 1 ml syringe and a 23-gauge needle. Blood was transferred to two groups of experimental tubes (400 microliters in each): empty tubes, and tubes containing citrate at a final concentration of 0.35% by weight (e.g., 50 μl of a respective 3.2% stock solution of trisodium citrate in water).
The anti-coagulant activity of the citrate powder was confirmed by recording absence of clot formation during the entire experiment, and thereafter, each of the following components was added to the tubes in both groups, at varying amounts:
=Coral skeleton particulates prepared from Porites lutea (to achieve a final concentration of 50-200 mg/ml)
=Coral skeleton particulates prepared from Stylophora subseriata (to achieve a final concentration of 50-200 mg/ml)
=Geological aragonite (to achieve a final concentration of 50-200 mg/ml)
=amorphous calcium carbonate (ACC) (1-200 mg, to achieve a final concentration of 2-50 mg/ml)
=Glass beads (0.1 mm diameter; to achieve a final concentration of 100 mg/ml)
Coagulation and anti-coagulation activity (presence and absence, respectively, of blood clots) was observed using a CCD camera.

SMILES | coagulation time of citrate-containing blood (final concentration 50 mg/ml, citrate-containing blood, data not shown) [min] | effect of citrate by itself on clotting (blood drawn from mice, 0.35% by weight of citrate, no calcium carbonate)
O=C([O-])[O-].[K+].[K+] [potassium carbonate] | 40 to 45 | 
O=C(O)CC(O)(CC(=O)O)C(=O)O [citrate, Trisodium citrate] |  | blocked clotting; also recorded: anti-coagulation effect
